From PMC5357620, “The NiFe Hydrogenases of the Tetrachloroethene-Respiring Epsilonproteobacterium Sulfurospirillum multivorans: Biochemical Studies and Transcription Analysis” (Frontiers in Microbiology, 2017) come the findings set out here.

For the test, the target named is T1, membrane-bound hydrogenase (MBH, HydABC) (Sulfurospirillum multivorans, UniProt A0AA86ALJ1+A0AA86ANH9+A0AA86DZD7).
T1 construct: gene hydB; HydA TAT signal peptide cleaved; predicted HydB 62, HydA 34, HydC 26 kDa; dimer of heterotrimers, about 270 kDa; with Periplasmic [NiFe] hydrogenase, large subunit
T1 sequence (A0AA86DZD7 1-561): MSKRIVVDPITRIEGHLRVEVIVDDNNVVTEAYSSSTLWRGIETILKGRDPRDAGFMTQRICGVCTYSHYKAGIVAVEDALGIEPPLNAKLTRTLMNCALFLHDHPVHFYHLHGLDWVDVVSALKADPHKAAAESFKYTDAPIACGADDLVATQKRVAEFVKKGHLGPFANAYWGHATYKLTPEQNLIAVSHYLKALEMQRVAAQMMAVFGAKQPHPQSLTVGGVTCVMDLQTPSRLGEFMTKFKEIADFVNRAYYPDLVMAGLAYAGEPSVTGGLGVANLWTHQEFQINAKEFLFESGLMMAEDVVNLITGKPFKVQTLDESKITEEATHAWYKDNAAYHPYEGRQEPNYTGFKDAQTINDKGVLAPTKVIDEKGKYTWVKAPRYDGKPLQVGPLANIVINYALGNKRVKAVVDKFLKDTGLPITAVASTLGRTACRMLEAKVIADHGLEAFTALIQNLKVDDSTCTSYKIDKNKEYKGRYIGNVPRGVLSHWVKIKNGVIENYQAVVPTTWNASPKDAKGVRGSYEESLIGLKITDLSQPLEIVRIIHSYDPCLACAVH
T1 sequence (A0AA86ALJ1 68-385): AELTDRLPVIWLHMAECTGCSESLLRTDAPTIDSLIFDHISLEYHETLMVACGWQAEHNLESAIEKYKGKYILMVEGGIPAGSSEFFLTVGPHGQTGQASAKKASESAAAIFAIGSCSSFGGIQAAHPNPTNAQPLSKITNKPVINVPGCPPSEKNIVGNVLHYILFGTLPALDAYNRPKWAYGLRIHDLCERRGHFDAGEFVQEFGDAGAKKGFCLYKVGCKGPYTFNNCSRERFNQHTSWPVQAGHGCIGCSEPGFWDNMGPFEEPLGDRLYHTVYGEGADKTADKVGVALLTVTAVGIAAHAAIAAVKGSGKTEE
T1 sequence (A0AA86ANH9 1-225): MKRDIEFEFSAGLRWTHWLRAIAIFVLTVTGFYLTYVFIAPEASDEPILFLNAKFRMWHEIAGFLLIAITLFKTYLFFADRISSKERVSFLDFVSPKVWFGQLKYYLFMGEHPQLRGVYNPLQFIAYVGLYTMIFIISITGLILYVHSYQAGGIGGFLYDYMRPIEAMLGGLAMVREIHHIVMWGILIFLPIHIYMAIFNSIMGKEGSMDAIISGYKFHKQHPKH
The test is described as follows: spectrophotometric H2-dependent DMN reduction, […] nm minus […] nm. It is filed as biochemical. The following applies: H2 as electron donor; 0.2 mM DMN; 50 mM glycylglycine pH 8.0; 0.5 mM DTT; electron acceptor, presumably via HydC cytochrome b; partially purified enzyme.

For `CC1=C(C)C(=O)c2ccccc2C1=O` [DMN, 2,3-dimethyl-1,4-naphthoquinone], the “spectrophotometric H2-dependent DMN reduction, 270 nm minus 290 nm” value is “both fractions showed activity with DMN as electron acceptor”.
